Consider two compounds from patent US20240327364A1, “THERAPEUTIC TARGETING OF GPR68 TO INDUCE FERROPTOSIS” (University Of Maryland, Baltimore, priority 2023, published 2024).

In one assay the target is T1, EPHA6 (Homo sapiens, UniProt Q9UF33).
T1 construct: purchased DiscoveRx (Fremont, CA)
As to the kind of experiment: KinomeScan. The assay is classed as binding. To be noted: read-out: % Control.

Another assay has as its target T2, IKK-epsilon (Homo sapiens, UniProt Q14164).
T2 construct: purchased DiscoveRx (Fremont, CA)
As to the kind of experiment: KinomeScan. The assay is classed as binding. To be noted: read-out: % Control.

A further assay addresses T3, OSR1 (Homo sapiens, UniProt O95747).
T3 construct: purchased DiscoveRx
The assay can be described thus: KinomeScan. Type of assay: binding. As to conditions: read-out: % Control.

The next assay addresses T4, HIPK3 (Homo sapiens, UniProt Q9H422).
T4 construct: purchased DiscoveRx (Fremont, CA)
As to the kind of experiment: KinomeScan. Type of assay: binding. To be noted: read-out: % Control.

The next assay addresses T5, S1P3 (Homo sapiens, UniProt Q99500).
T5 construct: host or cells: Chem-1 cells with Gα15
As to the kind of experiment: GPCR Profiler. Type of assay: cell-based.

The target of the next assay is T6, MAP4K2 (Homo sapiens, UniProt Q12851).
T6 construct: purchased DiscoveRx (Fremont, CA)
As to the kind of experiment: KinomeScan. Type of assay: binding. To be noted: read-out: % Control.

A further assay deals with CSF1R (Homo sapiens, UniProt P07333). The assay can be described thus: KinomeScan. The assay is classed as binding. To be noted: read-out: % Control.
The target in the next assay is T7, MRGX2 (Homo sapiens, UniProt Q96LB1).
T7 construct: host or cells: Chem-1 cells expressing Gα15
As to the kind of experiment: GPCR Profiler. Type of assay: cell-based.

A further assay concerns the target T8, EGFR(G719S) (Homo sapiens, UniProt P00533, G719S).
T8 construct: purchased DiscoveRx (Fremont, CA), KinomeScan service
The assay can be described thus: KinomeScan. Type of assay: binding. As to conditions: read-out: % Control.

In another assay the target is T9, Y2 (Homo sapiens, UniProt P49146).
T9 construct: host or cells: Chem-1 cells expressing Galpha15
The assay can be described thus: GPCR Profiler. The assay is classed as cell-based.

For the next assay, the target named is T10, mGlu1 (Homo sapiens, UniProt Q13255).
T10 construct: host or cells: Chem-1 cells expressing Gα15
The assay can be described thus: GPCR Profiler. Type of assay: cell-based.

For the next assay, the target named is T11, mGlu2 (Homo sapiens, UniProt Q14416).
T11 construct: host or cells: Chem-1 cells expressing Gα15
The assay can be described thus: GPCR Profiler. The assay is classed as cell-based.

Another assay deals with T12, CCR4 (Homo sapiens, UniProt P51679).
T12 construct: host or cells: Chem-1 cells with Gα15
As to the kind of experiment: GPCR Profiler. The assay is classed as cell-based.

A further assay has as its target T13, ABL1-nonphosphorylated (Homo sapiens, UniProt P00519).
T13 construct: purchased DiscoveRx
The assay can be described thus: KinomeScan. The assay is classed as binding. To be noted: read-out: % Control.

The next assay concerns the target T14, NEK9 (Homo sapiens, UniProt Q8TD19).
T14 construct: purchased DiscoveRx
As to the kind of experiment: KinomeScan. The assay is classed as binding. As to conditions: read-out: % Control.

A further assay deals with MeWo. As to the kind of experiment: Scratch assay. The assay is classed as cell-based, human. To be noted: 20 hours, OGM2 5 uM. As for the experimental part:
(§1) Since there are numerous parallels are found between neural crest cells and cancer during migration, we examined whether OGM could inhibit the migration of cells in human melanoma cell lines (Oppitz et al., 2007; Schriek et al., 2005, Sinnberg et al., 2018). […] A2058. MeWo and WM115 cells were grown to confluence and a stripe of cells were denuded with a p200 pipette tip “scratch” and rinsed with PBS. Cells were treated with OGM or DMSO and incubated in low serum media. Imaging was done at 30 minutes after “scratch” and then 20 hours afterwards. Areas were then measured and normalized to the initial area.

A further assay deals with WM115. The assay can be described thus: Scratch assay. The assay is classed as cell-based, human. To be noted: 20 hours, OGM2 5 uM. As to the method:
as §1

In another assay the test system is U138 spheroids. As to the kind of experiment: GBM spheroid assay. The assay is classed as cell-based, human. As to the method:
One thousand cells per well were plated in an ultra-low attachment, round-bottomed, 96-well plate, and spheroids were allowed to form for 3 days. Wells were then exposed to concentrations of vehicle, OGM2 or TMZ or a combination for 3 days. Spheroids were imaged in brightfield at 10× using z-stacks that were collapsed into z-projections in the Gen5 software using the LionheartFx (BioTek™). Automated measurements of the spheroid area were obtained using Gen5 software.
Tumor spheroid cultures are a more physiological model of tumor growth than typical 2D cell culture. Temozolomide sensitive U87 (FIG. 20A) and Temozolomide insensitive U138 (FIG. 20B) glioblastoma cell lines were plated in low attachment round bottom 96-well plates and allowed to form tumor spheroids for 3 days (T0). At T0, spheroids were imaged using Lionheart™ (HCS) High-Content Imaging Systems (Biotek™) and then were exposed to increasing doses of either Temozolomide or OGM2. After 5 days of treatment the spheroids were imaged again (T5). The size (area) of the spheroids after 5 days of treatment was quantified, and the average size of the spheroids at TO is depicted in red.

A further assay relates to U87 glioblastoma cells. As to the kind of experiment: Acid-induced calcium flux in U87 cells. Type of assay: cell-based, human. To be noted: medium shifted from pH 7.8 to 6.4. From the text: GPR68 is known to signal through Gq which results in a calcium flux out of the Endoplasmic reticulum. U87 glioblastoma cells were stained, using a calcium-sensitive vital dye Fluo-8, and stimulated with acidification of the media to pH6.4. The cells respond to the acidification with a burst of calcium release, this is inhibited by OGM2.
To determine if GBM cells respond to their own acidic extracellular milieu as a form of autocrine signaling, calcium release in response to acidification was measured. GPR68 is known to couple to the Gq subunit, which acts to release calcium from the ER in a PLC dependent pathway. The medium was shifted from pH 7.8 to 6.4, which triggered a rapid and robust calcium flux, as measured by the fluorescence intensity of calcium-sensitive dye Cal520-AM. This calcium flux was blocked by OGM2 and PLC inhibitor U73122. FIG. 50A, FIG. 50B, FIG. 50C and FIG. 50D.
On the technique in general: Calcium assays in cells follow changes in intracellular calcium, usually with a dye or a luminescent sensor.

SMILES strings stand for the structures.

T12 sequence (P51679 whole entry): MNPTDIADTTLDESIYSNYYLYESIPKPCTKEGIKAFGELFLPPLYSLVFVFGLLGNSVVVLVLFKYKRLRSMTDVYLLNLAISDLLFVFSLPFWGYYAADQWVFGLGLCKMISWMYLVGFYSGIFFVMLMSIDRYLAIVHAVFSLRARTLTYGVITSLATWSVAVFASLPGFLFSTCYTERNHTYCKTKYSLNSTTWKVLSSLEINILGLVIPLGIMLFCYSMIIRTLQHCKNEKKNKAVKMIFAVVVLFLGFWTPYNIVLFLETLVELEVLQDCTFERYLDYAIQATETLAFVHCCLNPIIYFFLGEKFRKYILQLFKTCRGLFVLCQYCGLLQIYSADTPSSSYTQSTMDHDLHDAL
T7 sequence (Q96LB1 whole entry, species assumed): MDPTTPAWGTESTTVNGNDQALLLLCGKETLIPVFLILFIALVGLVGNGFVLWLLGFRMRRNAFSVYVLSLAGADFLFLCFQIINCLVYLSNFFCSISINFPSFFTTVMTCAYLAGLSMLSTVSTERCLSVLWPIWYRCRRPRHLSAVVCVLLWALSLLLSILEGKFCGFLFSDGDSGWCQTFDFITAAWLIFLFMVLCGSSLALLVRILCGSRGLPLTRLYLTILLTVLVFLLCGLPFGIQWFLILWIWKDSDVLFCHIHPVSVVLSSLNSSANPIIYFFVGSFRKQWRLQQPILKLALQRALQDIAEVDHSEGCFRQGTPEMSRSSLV
T11 sequence (Q14416 19-872): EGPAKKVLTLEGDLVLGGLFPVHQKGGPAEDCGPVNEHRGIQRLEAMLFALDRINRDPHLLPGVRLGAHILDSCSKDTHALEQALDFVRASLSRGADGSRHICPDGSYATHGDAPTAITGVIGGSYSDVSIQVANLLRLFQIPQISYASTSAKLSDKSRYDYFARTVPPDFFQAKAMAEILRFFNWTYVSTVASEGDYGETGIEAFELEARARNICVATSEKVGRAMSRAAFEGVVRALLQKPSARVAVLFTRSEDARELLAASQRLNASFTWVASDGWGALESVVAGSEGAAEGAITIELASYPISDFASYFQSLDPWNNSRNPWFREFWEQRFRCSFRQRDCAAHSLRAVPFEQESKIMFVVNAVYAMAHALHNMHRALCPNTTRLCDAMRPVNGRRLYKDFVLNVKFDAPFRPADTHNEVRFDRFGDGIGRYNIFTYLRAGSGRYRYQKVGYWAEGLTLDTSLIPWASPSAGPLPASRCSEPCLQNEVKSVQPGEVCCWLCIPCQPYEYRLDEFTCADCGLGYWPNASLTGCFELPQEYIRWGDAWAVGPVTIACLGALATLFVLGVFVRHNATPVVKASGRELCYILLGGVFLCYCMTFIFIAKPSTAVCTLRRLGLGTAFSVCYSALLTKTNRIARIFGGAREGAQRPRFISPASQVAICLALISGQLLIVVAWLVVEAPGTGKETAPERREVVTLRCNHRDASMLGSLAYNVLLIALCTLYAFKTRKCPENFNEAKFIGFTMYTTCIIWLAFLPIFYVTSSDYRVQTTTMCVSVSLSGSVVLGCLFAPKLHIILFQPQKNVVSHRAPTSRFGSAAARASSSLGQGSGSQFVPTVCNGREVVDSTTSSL
T9 sequence (P49146 whole entry): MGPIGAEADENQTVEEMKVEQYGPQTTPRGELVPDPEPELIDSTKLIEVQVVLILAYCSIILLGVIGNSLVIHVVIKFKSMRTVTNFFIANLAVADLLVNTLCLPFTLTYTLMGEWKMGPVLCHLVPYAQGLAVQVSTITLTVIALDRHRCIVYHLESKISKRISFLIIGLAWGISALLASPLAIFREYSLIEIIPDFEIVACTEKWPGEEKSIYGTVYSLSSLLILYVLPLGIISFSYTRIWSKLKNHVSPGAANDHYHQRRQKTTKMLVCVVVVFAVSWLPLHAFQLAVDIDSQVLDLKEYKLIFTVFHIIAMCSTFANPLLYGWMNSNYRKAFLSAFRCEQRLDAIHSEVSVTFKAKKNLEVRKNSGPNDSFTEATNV
T5 sequence (Q99500 whole entry, species assumed): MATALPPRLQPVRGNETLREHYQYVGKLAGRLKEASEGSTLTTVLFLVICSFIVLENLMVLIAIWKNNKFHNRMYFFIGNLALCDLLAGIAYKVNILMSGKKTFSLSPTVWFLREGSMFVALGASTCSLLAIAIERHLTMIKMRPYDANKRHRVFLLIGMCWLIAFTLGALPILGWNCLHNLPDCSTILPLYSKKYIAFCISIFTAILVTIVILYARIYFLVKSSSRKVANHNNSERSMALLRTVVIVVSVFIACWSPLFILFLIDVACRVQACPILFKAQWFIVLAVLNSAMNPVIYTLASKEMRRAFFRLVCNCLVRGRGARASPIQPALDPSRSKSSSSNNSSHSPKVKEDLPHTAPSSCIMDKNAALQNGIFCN
T10 sequence (Q13255 19-1194): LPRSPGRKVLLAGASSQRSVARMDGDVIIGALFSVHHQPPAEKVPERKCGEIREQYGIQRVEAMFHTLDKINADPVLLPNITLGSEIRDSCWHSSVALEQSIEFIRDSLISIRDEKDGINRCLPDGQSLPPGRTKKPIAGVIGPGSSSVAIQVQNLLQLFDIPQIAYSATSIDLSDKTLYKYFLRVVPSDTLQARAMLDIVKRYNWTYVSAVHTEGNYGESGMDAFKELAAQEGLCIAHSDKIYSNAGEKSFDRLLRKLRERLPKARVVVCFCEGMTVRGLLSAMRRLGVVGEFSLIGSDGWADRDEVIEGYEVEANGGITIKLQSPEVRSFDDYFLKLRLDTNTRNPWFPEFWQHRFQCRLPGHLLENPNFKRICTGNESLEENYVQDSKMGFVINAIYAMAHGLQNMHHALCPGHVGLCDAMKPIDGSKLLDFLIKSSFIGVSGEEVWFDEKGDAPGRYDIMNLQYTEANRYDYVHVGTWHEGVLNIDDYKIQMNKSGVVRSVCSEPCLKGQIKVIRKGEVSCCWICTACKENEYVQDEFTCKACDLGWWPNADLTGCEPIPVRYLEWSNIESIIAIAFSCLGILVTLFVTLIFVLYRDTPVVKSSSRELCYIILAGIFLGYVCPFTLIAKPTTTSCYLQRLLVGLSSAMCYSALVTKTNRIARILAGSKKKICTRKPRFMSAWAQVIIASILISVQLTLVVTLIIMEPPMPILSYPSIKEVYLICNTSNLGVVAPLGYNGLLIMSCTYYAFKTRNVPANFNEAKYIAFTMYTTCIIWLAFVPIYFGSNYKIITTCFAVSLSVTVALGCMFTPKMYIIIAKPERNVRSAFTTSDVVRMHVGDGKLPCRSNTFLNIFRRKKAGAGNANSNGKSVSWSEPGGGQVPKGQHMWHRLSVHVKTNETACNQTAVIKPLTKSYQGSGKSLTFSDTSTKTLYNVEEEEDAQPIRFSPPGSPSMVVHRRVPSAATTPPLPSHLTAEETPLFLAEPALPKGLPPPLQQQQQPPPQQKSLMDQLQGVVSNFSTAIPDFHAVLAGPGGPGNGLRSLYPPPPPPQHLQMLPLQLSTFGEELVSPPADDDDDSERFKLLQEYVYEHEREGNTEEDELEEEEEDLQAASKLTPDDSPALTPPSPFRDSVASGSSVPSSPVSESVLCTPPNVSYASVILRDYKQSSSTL
Chain of CSF1R (P07333 20-972): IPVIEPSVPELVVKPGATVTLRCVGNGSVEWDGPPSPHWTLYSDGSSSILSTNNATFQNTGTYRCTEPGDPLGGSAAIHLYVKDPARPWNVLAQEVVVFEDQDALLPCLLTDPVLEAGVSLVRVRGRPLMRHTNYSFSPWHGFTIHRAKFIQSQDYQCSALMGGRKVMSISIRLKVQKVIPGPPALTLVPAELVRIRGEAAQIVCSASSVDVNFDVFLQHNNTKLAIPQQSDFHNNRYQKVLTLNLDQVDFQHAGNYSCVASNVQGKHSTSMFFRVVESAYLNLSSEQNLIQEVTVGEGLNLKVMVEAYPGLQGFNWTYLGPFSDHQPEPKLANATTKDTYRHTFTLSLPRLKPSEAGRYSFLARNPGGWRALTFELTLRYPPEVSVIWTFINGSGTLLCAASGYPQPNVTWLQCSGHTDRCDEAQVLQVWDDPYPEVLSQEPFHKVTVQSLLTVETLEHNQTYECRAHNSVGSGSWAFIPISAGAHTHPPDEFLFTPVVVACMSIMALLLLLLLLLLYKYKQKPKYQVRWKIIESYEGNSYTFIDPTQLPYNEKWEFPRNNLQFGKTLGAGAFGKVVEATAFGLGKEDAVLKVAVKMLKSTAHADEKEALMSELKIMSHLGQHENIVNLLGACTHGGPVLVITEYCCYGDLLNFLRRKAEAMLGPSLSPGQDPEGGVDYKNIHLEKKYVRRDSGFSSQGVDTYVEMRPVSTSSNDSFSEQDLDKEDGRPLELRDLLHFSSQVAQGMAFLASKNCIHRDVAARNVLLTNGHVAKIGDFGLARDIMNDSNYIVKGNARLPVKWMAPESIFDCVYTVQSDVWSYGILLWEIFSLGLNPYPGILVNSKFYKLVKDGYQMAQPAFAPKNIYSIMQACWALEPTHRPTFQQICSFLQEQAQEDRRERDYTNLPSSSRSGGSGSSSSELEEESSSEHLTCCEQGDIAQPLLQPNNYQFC
T13 sequence (P00519 242-493 limits assumed): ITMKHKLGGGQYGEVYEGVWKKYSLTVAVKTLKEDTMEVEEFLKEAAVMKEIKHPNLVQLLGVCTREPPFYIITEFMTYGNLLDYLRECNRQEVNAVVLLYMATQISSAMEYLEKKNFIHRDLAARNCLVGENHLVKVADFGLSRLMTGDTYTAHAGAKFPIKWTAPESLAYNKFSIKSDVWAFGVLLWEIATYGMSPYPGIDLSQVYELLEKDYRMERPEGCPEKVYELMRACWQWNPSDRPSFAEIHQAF

For the compound `CCc1ccc2c(c1)C1(NN=C(c3cccc4ccccc34)S1)C(=O)N2` (stereo not shown) [OGM1, 5-ethyl-5′-naphthalen-1-ylspiro[1H-indole-3,2′-3H-1,3,4-thiadiazole]-2-one], the remaining binding at 10 µM amounted to 100% at EPHA6; 100% on IKK-epsilon; 92% on OSR1; 67% at HIPK3; 83% at MAP4K2; 78% on CSF1R. Moreover, the remaining binding at 10 µM on EGFR(G719S) amounted to 95%; at ABL1-nonphosphorylated it was 100%; on NEK9, 100%. Moreover, the Antagonism is given as −3.7 on S1P3 (10 uM); 5.1 on MRGX2 (10 uM); −0.6 at Y2 (10 uM); −12.7 on mGlu1 (10 uM); −1.2 at mGlu2 (10 uM); −4.1 at CCR4 (10 uM). The Agonism at S1P3 (12.5 uM) is reported as 0.2; on MRGX2 (12.5 uM), −0.1; on Y2 (12.5 uM), 2.5; on mGlu1 (12.5 uM), 1.1; at mGlu2 (12.5 uM), −0.4; at CCR4 (12.5 uM) it was −0.7.
Regarding `CCc1ccc2c(c1)C1(NN=C(c3ccccc3)S1)C(=O)N2` (stereo not shown) [OGM2], the migration entry in the assay on MeWo and in the assay with WM115 was “inhibited migration” throughout. Also, the “growth of 3D spheroids” value in the assay with U138 spheroids is on record as “significantly decreased the growth of U138 3D spheroids”. The acid-induced calcium flux result with U87 glioblastoma cells is on record as “blocked”.
